What was measured:
Assay type in all cases: in vivo
Cyperus iria = test: Preemergence weed control under flooded paddy conditions, CYPIR (Rice Flatsedge); settings: flooded paddy; for CYPIR herbicidal effect rating / herbicidal effect rating, CYPIR: preemergence, rated three to four weeks after treatment; for CYPIR: preemergence weeds, herbicidal effect rating 0-9, three to four weeks after treatment; as to herbicidal effect rating, CYPIR: meaning of each grade not given here
Sagittaria pygmaea, L. = test: Preemergence weed control under flooded paddy conditions, SAGPY (Arrowhead (Pygmaea)); settings: flooded paddy; for SAGPY herbicidal effect rating / herbicidal effect rating, SAGPY: preemergence, rated three to four weeks after treatment; for SAGPY: preemergence weeds, herbicidal effect rating 0-9, three to four weeks after treatment; as to herbicidal effect rating, SAGPY: meaning of each grade not given here
[1] = system: Echinochloa oryzoides (Ard.) Fritsch.; test: Preemergence weed control under flooded paddy conditions, ECHORC (Watergrass (Calif.)); settings: flooded paddy; for ECHORC herbicidal effect rating / herbicidal effect rating, ECHORC: preemergence, rated three to four weeks after treatment; for ECHORC: preemergence weeds, herbicidal effect rating 0-9, three to four weeks after treatment; as to herbicidal effect rating, ECHORC: meaning of each grade not given here
[2] = system: Cyperus serotinus, Rottb.; test: Preemergence weed control under flooded paddy conditions, CYPSE (Flatsedge); settings: for CYPSE herbicidal effect rating / herbicidal effect rating, CYPSE: preemergence, rated three to four weeks after treatment; for CYPSE: preemergence weeds, herbicidal effect rating 0-9, three to four weeks after treatment; as to herbicidal effect rating, CYPSE: meaning of each grade not given here
[3] = system: Monochoria vaginalis, Presl.; test: Preemergence weed control under flooded paddy conditions, MOOVA (Monochoria); settings: flooded paddy; for MOOVA herbicidal effect rating / herbicidal effect rating, MOOVA: preemergence, rated three to four weeks after treatment; for MOOVA: preemergence weeds, herbicidal effect rating 0-9, three to four weeks after treatment; as to herbicidal effect rating, MOOVA: meaning of each grade not given here

Q: What does the source list for `CC(OCc1nsc2ccc(-n3c(=O)cc(C(F)(F)F)n(C)c3=O)cc12)C(F)(F)F` (centres unmarked) [Example 208]?
A: CYPIR herbicidal effect rating (Cyperus iria; Rate 0.0313 kg/ha): 9.0; CYPIR herbicidal effect rating (Cyperus iria; Rate 0.0625 kg/ha): 9.0; CYPIR herbicidal effect rating (Cyperus iria; Rate 0.1250 kg/ha): 9.0; CYPIR herbicidal effect rating (Cyperus iria; Rate 0.2500 kg/ha): 9.0; SAGPY herbicidal effect rating (Sagittaria pygmaea, L.; Rate 0.0313 kg/ha): 0.0; SAGPY herbicidal effect rating (Sagittaria pygmaea, L.; Rate 0.0625 kg/ha): 0.0; SAGPY herbicidal effect rating (Sagittaria pygmaea, L.; Rate 0.1250 kg/ha): 0.0; SAGPY herbicidal effect rating (Sagittaria pygmaea, L.; Rate 0.2500 kg/ha): 0.0; ECHORC herbicidal effect rating ([1]; Rate 0.0313 kg/ha): 0.0; ECHORC herbicidal effect rating ([1]; Rate 0.0625 kg/ha): 0.0; ECHORC herbicidal effect rating ([1]; Rate 0.1250 kg/ha): 0.0; ECHORC herbicidal effect rating ([1]; Rate 0.2500 kg/ha): 0.0; CYPSE herbicidal effect rating ([2]; Rate 0.0313 kg/ha): 0.0; CYPSE herbicidal effect rating ([2]; Rate 0.0625 kg/ha): 0.0; CYPSE herbicidal effect rating ([2]; Rate 0.1250 kg/ha): 0.0; CYPSE herbicidal effect rating ([2]; Rate 0.2500 kg/ha): 0.0; MOOVA herbicidal effect rating ([3]; Rate 0.0313 kg/ha): 0.0; MOOVA herbicidal effect rating ([3]; Rate 0.0625 kg/ha): 2.0; MOOVA herbicidal effect rating ([3]; Rate 0.1250 kg/ha): 2.0; MOOVA herbicidal effect rating ([3]; Rate 0.2500 kg/ha): 4.0

Q: What does the source list for `Cn1c(C(F)(F)F)cc(=O)n(-c2ccc3snc(COC(=O)NCc4ccccc4)c3c2)c1=O` [Example 390, 2,4(1H,3H)-Pyrimidinedione, 3-[3-(hydroxymethyl)-1,2-benzisothiazol-5-yl]-1-methyl-6-(trifluoromethyl)-, benzylcarbamate (ester)]?
A: herbicidal effect rating, CYPIR (Cyperus iria; Rate 0.0320 kg/ha): 1.0; herbicidal effect rating, CYPIR (Cyperus iria; Rate 0.0620 kg/ha): 4.0; herbicidal effect rating, CYPIR (Cyperus iria; Rate 0.1250 kg/ha): 7.0; herbicidal effect rating, CYPIR (Cyperus iria; Rate 0.2500 kg/ha): 9.0; herbicidal effect rating, CYPIR (Cyperus iria; Rate 0.5000 kg/ha): 9.0; herbicidal effect rating, SAGPY (Sagittaria pygmaea, L.; Rate 0.0320 kg/ha): 2.5; herbicidal effect rating, SAGPY (Sagittaria pygmaea, L.; Rate 0.0620 kg/ha): 5.5; herbicidal effect rating, SAGPY (Sagittaria pygmaea, L.; Rate 0.1250 kg/ha): 8.0; herbicidal effect rating, SAGPY (Sagittaria pygmaea, L.; Rate 0.2500 kg/ha): 8.0; herbicidal effect rating, SAGPY (Sagittaria pygmaea, L.; Rate 0.5000 kg/ha): 9.0; herbicidal effect rating, ECHORC ([1]; Rate 0.0320 kg/ha): 5.5; herbicidal effect rating, ECHORC ([1]; Rate 0.0620 kg/ha): 7.0; herbicidal effect rating, ECHORC ([1]; Rate 0.1250 kg/ha): 8.0; herbicidal effect rating, ECHORC ([1]; Rate 0.2500 kg/ha): 9.0; herbicidal effect rating, ECHORC ([1]; Rate 0.5000 kg/ha): 9.0; herbicidal effect rating, CYPSE ([2]; Rate 0.0320 kg/ha): 2.5; herbicidal effect rating, CYPSE ([2]; Rate 0.1250 kg/ha): 4.0; herbicidal effect rating, CYPSE ([2]; Rate 0.2500 kg/ha): 9.0; herbicidal effect rating, CYPSE ([2]; Rate 0.5000 kg/ha): 6.0; herbicidal effect rating, MOOVA ([3]; Rate 0.0320 kg/ha): 9.0; herbicidal effect rating, MOOVA ([3]; Rate 0.0620 kg/ha): 9.0; herbicidal effect rating, MOOVA ([3]; Rate 0.1250 kg/ha): 9.0; herbicidal effect rating, MOOVA ([3]; Rate 0.2500 kg/ha): 9.0; herbicidal effect rating, MOOVA ([3]; Rate 0.5000 kg/ha): 9.0

Q: With `COC(=O)COc1ccc(C)cc1-c1nsc2cc(Cl)c(-n3c(=O)cc(C(F)(F)F)n(C)c3=O)cc12` [Example 443, Acetic acid, {{2-{6-chloro-5-[3,6-dihydro-3-methyl-2,6-dioxo-4-(trifluoromethyl)-1(2H)-pyrimidinyl]-1,2-benzisothiazol-3-yl}-p-tolyl}oxy}-, methyl ester] as the compound, how does the CYPIR (Cyperus iria; 0.0320 kg/ha) read?
A: 4.0

Q: And the CYPIR (Cyperus iria; 0.0620 kg/ha)?
A: 6.0

Q: And the CYPIR (Cyperus iria; 0.1250 kg/ha)?
A: 7.0

Q: What about the CYPIR (Cyperus iria; 0.2500 kg/ha) of the same compound?
A: 7.0

Q: And the SAGPY (Sagittaria pygmaea, L.; 0.0320 kg/ha)?
A: 3.0

Q: And the SAGPY (Sagittaria pygmaea, L.; 0.0620 kg/ha)?
A: 3.0

Q: What about the SAGPY (Sagittaria pygmaea, L.; 0.1250 kg/ha) of the same compound?
A: 4.0

Q: What about the SAGPY (Sagittaria pygmaea, L.; 0.2500 kg/ha) of the same compound?
A: 5.0

Q: What about the ECHORC ([1]; 0.0320 kg/ha) of the same compound?
A: 6.0

Q: And the ECHORC ([1]; 0.0620 kg/ha)?
A: 5.0

Q: And the ECHORC ([1]; 0.1250 kg/ha)?
A: 7.0

Q: And the ECHORC ([1]; 0.2500 kg/ha)?
A: 9.0

Q: And the CYPSE ([2]; 0.0320 kg/ha)?
A: 0.0

Q: What about the CYPSE ([2]; 0.0620 kg/ha) of the same compound?
A: 0.0

Q: What about the CYPSE ([2]; 0.1250 kg/ha) of the same compound?
A: 0.0

Q: And the MOOVA ([3]; 0.0320 kg/ha)?
A: 5.0

Q: And the MOOVA ([3]; 0.0620 kg/ha)?
A: 6.0

Q: What about the MOOVA ([3]; 0.1250 kg/ha) of the same compound?
A: 7.0

Q: What about the MOOVA ([3]; 0.2500 kg/ha) of the same compound?
A: 7.0

Q: For `Cn1c(C(F)(F)F)cc(=O)n(-c2ccc3snc(C(Cc4ccccc4)S(C)(=O)=O)c3c2)c1=O` (stereo not drawn) [Example 604, 2,4(1H,3H)-Pyrimidinedione, 1-methyl-3-{3-[alpha(methylsulfonyl)phenethyl]-1,2-benzisothiazol-5-yl}-6-(trifluoromethyl)-], which “herbicidal effect rating, CYPIR” value (Cyperus iria; Rate 0.0320 kg/ha) is on record?
A: 0.0

Q: And the “herbicidal effect rating, CYPIR” value (Cyperus iria; Rate 0.0620 kg/ha)?
A: 3.0

Q: What about the “herbicidal effect rating, CYPIR” value (Cyperus iria; Rate 0.1250 kg/ha) of the same compound?
A: 4.0

Q: What about the “herbicidal effect rating, CYPIR” value (Cyperus iria; Rate 0.2500 kg/ha) of the same compound?
A: 6.0

Q: What about the “herbicidal effect rating, SAGPY” value (Sagittaria pygmaea, L.; Rate 0.0320 kg/ha) of the same compound?
A: 0.0

Q: And the “herbicidal effect rating, SAGPY” value (Sagittaria pygmaea, L.; Rate 0.0620 kg/ha)?
A: 0.0

Q: What about the “herbicidal effect rating, SAGPY” value (Sagittaria pygmaea, L.; Rate 0.1250 kg/ha) of the same compound?
A: 0.0

Q: What about the “herbicidal effect rating, SAGPY” value (Sagittaria pygmaea, L.; Rate 0.2500 kg/ha) of the same compound?
A: 0.0

Q: And the “herbicidal effect rating, ECHORC” value ([1]; Rate 0.0320 kg/ha)?
A: 7.0

Q: What about the “herbicidal effect rating, ECHORC” value ([1]; Rate 0.0620 kg/ha) of the same compound?
A: 7.0

Q: And the “herbicidal effect rating, ECHORC” value ([1]; Rate 0.1250 kg/ha)?
A: 7.0

Q: What about the “herbicidal effect rating, ECHORC” value ([1]; Rate 0.2500 kg/ha) of the same compound?
A: 9.0

Q: And the “herbicidal effect rating, CYPSE” value ([2]; Rate 0.0320 kg/ha)?
A: 0.0

Q: And the “herbicidal effect rating, CYPSE” value ([2]; Rate 0.0620 kg/ha)?
A: 0.0

Q: And the “herbicidal effect rating, CYPSE” value ([2]; Rate 0.1250 kg/ha)?
A: 0.0

Q: What about the “herbicidal effect rating, CYPSE” value ([2]; Rate 0.2500 kg/ha) of the same compound?
A: 0.0

Q: And the “herbicidal effect rating, MOOVA” value ([3]; Rate 0.0320 kg/ha)?
A: 5.0

Q: What about the “herbicidal effect rating, MOOVA” value ([3]; Rate 0.0620 kg/ha) of the same compound?
A: 6.0

Q: What about the “herbicidal effect rating, MOOVA” value ([3]; Rate 0.1250 kg/ha) of the same compound?
A: 7.0

Q: And the “herbicidal effect rating, MOOVA” value ([3]; Rate 0.2500 kg/ha)?
A: 8.0
